Measurements from patent US11840497B2, “4-(p-quinonyl)-2-hydroxybutanamide derivatives for treatment of mitochondrial diseases” (PTC Therapeutics, Inc., priority 2007, dated 2023).
Like-named read-outs stand apart in the source and are kept apart here.

Assays:
[1] = tested on: human dermal fibroblasts from LHON patients; assay: Rescue of BSO-stressed fibroblasts from LHON patients (Example C); assay type: cell-based; conditions: Fibroblast, LHON fibroblasts GM03858, screen as Example A, read-out: protection against LHON, EC50
Procedure: The compounds were tested for their ability to rescue human dermal fibroblasts from LHON patients from oxidative stress.

[2] = tested on: Human dermal fibroblasts from Friedreich's Ataxia patients; assay: Rescue of BSO-stressed FRDA fibroblasts (Example A); assay type: cell-based; conditions: FRDA fibroblasts GM04078, 1 mM BSO
Procedure: Test samples, 4 reference compounds (idebenone, decylubiquinone, Trolox and α-tocopherol acetate), and solvent controls were tested for their ability to rescue FRDA fibroblasts stressed by addition of L-buthionine (S,R)-sulfoximine (BSO), as described in Jauslin et al., Hum. Mol. Genet. […] Mol. Genet. […] This specific BSO-mediated cell death can be prevented by administration of antioxidants or molecules involved in the antioxidant pathway, such as α-tocopherol, selenium, or small molecule glutathione peroxidase mimetics. However, antioxidants differ in their potency, i.e. the concentration at which they are able to rescue BSO-stressed FRDA fibroblasts.
Fetal Calf Serum was obtained from PAA Laboratories. Basic fibroblast growth factor and epidermal growth factor were purchased from PeproTech. Penicillin-streptomycin-glutamine mix, L-buthionine (S,R)-sulfoximine, (+)-α-tocopherol acetate, decylubiquinone, and insulin from bovine pancreas were purchased from Sigma. Trolox (6-Hydroxy-2,5,7,8-tetramethylchroman-2-carboxylic acid) was obtained from Fluka. Idebenone was obtained from Chemo Iberica. Calcein AM was purchased from Molecular Probes. Cell culture medium was made by combining 125 ml M199 EBS, 50 ml Fetal Calf Serum, 100 U/ml penicillin, 100 μg/ml streptomycin, 2 mM glutamine, 10 μg/ml insulin, 10 ng/ml EGF, and 10 ng/ml bFGF; MEM EBS was added to make the volume up to 500 ml. […] During the course of the experiments, this solution was stored at +4° C. The cells were obtained from the Coriell Cell Repositories (Camden, NJ; repository number GM04078) and grown in 10 cm tissue culture plates. Every third day, they were split at a 1:3 ratio.
The test samples were supplied in 1.5 ml glass vials. […] Once dissolved, they were stored at −20° C. Reference antioxidants (idebenone, decylubiquinone, α-tocopherol acetate and trolox) were dissolved in DMSO.
Test samples were screened according to the following protocol: A culture with FRDA fibroblasts was started from a 1 ml vial with approximately 500,000 cells stored in liquid nitrogen. […] Once confluent, fibroblasts were harvested. […] The remaining cells were distributed in 10 cm cell culture plates (500,000 cells/plate) for propagation. The plates were incubated overnight at 37° C. in a atmosphere with 95% humidity and 5% CO2 to allow attachment of the cells to the culture plate.
MTP medium (243 μl) was added to a well of the microtiter plate. […] Serial dilutions from the master solution were made. The period between the single dilution steps was kept as short as possible (generally less than 1 second).
Plates were kept overnight in the cell culture incubator. The next day, 10 μl of a 10 mM BSO solution were added to the wells, resulting in a 1 mM final BSO concentration. Forty-eight hours later, three plates were examined under a phase-contrast microscope to verify that the cells in the 0% control (wells E1-H1) were clearly dead. The medium from all plates was discarded, and the remaining liquid was removed by gently tapping the plate inversed onto a paper towel.
The plates were incubated for 50-70 minutes at room temperature. After that time the PBS was discarded, the plate gently tapped on a paper towel and fluorescence (excitation/emission wavelengths of 485 nm and 525 nm, respectively) was read on a Gemini fluorescence reader. Data was imported into Microsoft Excel (EXCEL is a registered trademark of Microsoft Corporation for a spreadsheet program) and used to calculate the EC50 concentration for each compound.
The compounds were tested three times, i.e., the experiment was performed three times, the passage number of the cells increasing by one with every repetition.
The viability of non-BSO treated fibroblasts was set as 100%, and the viability of the BSO- and compound-treated cells was calculated as relative to this value.

[3] = read-out: protection against FRDA, EC50
[4] = Calcein AM viability, average of three values, read-out: EC50 Average
[5] = Calcein AM viability, experiment 1 of 3, read-out: EC50 Value 1
[6] = Calcein AM viability, experiment 2 of 3, read-out: EC50 Value 2
[7] = Calcein AM viability, experiment 3 of 3, read-out: EC50 Value 3

Structure (SMILES) | EC50 [1] [nM] | EC50 [2, 3] [nM] | EC50 [2, 4] [nM] | EC50 [2, 5] [nM] | EC50 [2, 6] [nM] | EC50 [2, 7] [nM]
CC1=C(C)C(=O)C(CCC(C)(O)C(=O)N2CCN(C(=O)c3ccccc3)CC2)=C(C)C1=O (centres unmarked) [2-(4-(4-benzoylpiperazin-1-yl)-3-hydroxy-3-methyl-4-oxobutyl)-3,5,6-trimethylcyclohexa-2,5-diene-1,4-dione] | < 100 | – | – | – | – | –
CC1=C(C)C(=O)C(CCC(C)(O)C(=O)N2CCCCCC2)=C(C)C1=O (centres unmarked) [2-(4-(azepan-1-yl)-3-hydroxy-3-methyl-4-oxobutyl)-3,5,6-trimethylcyclohexa-2,5-diene-1,4-dione] | < 100 | – | – | – | – | –
CC1=C(C)C(=O)C(CCC(C)(O)C(=O)NCCCS(C)(=O)=O)=C(C)C1=O (centres unmarked) [2-hydroxy-2-methyl-N-(3-(methylsulfonyl)propyl)-4-(2,4,5-trimethyl-3,6-dioxocyclohexa-1,4-dienyl)butanamide] | < 100 | – | – | – | – | –
CC1=C(C)C(=O)C(CCC(C)(O)C(=O)NCc2ccncc2)=C(C)C1=O (centres unmarked) [2-hydroxy-2-methyl-N-(pyridin-4-ylmethyl)-4-(2,4,5-trimethyl-3,6-dioxocyclohexa-1,4-dienyl)butanamide] | < 100 | – | – | – | – | –
CC1=C(C)C(=O)C(CC[C@@](C)(O)C(=O)N2CCC(O)CC2)=C(C)C1=O [(R)-2-(3-hydroxy-4-(4-hydroxypiperidin-1-yl)-3-methyl-4-oxobutyl)-3,5,6-trimethylcyclohexa-2,5-diene-1,4-dione] | < 100 | < 100 | – | – | – | –
CC1=C(C)C(=O)C(CC[C@](C)(O)C(=O)N2CCC(O)CC2)=C(C)C1=O [(S)-2-(3-hydroxy-4-(4-hydroxypiperidin-1-yl)-3-methyl-4-oxobutyl)-3,5,6-trimethylcyclohexa-2,5-diene-1,4-dione] | < 100 | < 100 | – | – | – | –
CC1=C(C)C(=O)C(CCC(C)(O)C(=O)NCCC(C)C)=C(C)C1=O (centres unmarked) [Example 7, 2-Hydroxy-N-isopentyl-2-methyl-4-(2,4,5-trimethyl-3,6-dioxocyclohexa-1,4-dienyl)butanamide] | < 100 | – | – | – | – | –
CC1=C(C)C(=O)C(CCC(C)(O)C(=O)NCC(C)O)=C(C)C1=O (centres unmarked) [Example 30, 2-Hydroxy-N-(2-hydroxypropyl)-2-methyl-4-(2,4,5-trimethyl-3,6-dioxocyclohexa-1,4-dienyl)butanamide] | < 100 | < 100 | – | – | – | –
CC1=C(C)C(=O)C(CCC(C)(O)C(=O)N2CCCCC2)=C(C)C1=O (centres unmarked) [Example 42, 2-(3-Hydroxy-3-methyl-4-oxo-4-(piperidin-1-yl)butyl)-3,5,6-trimethylcyclohexa-2,5-diene-1,4-dione] | < 100 | – | – | – | – | –
COC1=C(OC)C(=O)C(CCCCCCCCCCO)=C(C)C1=O [Idebenone, reference compound] | – | – | 1200 | 1500 | 1000 | 1000
CC1=C(C)C(=O)C(CCC(C)(O)C(=O)NCCc2ccccc2F)=C(C)C1=O (centres unmarked) [N-(2-fluorophenethyl)-2-hydroxy-2-methyl-4-(2,4,5-trimethyl-3,6-dioxocyclohexa-1,4-dienyl)butanamide] | < 100 | < 100 | – | – | – | –
CC1=C(C)C(=O)C(CCC(C)(O)C(=O)NCCc2cccc(F)c2)=C(C)C1=O (centres unmarked) [N-(3-fluorophenethyl)-2-hydroxy-2-methyl-4-(2,4,5-trimethyl-3,6-dioxocyclohexa-1,4-dienyl)butanamide] | < 100 | < 100 | – | – | – | –
Cc1c(C)c2c(c(C)c1O)CCC(C)(C(=O)O)O2 (centres unmarked) [Trolox, 6-Hydroxy-2,5,7,8-tetramethylchroman-2-carboxylic acid, reference compound] | – | – | 8700 | 9000 | 9000 | 8000
CC(=O)Oc1c(C)c(C)c2c(c1C)CCC(C)(CCC[C@H](C)CCC[C@H](C)CCCC(C)C)O2 (stereo partly drawn) [alpha-tocopherol acetate, (+)-α-tocopherol acetate, reference compound] | – | – | 300 | 400 | 150 | 350
CCCCCCCCCCC1=C(C)C(=O)C(OC)=C(OC)C1=O [decylubiquinone, reference compound] | – | – | 38 | 50 | 35 | 30
